Results: patent US6821959B1, “Antibiotic-natural polysaccharide polymer adducts” (Istituto Biochimico Pavese Pharma S.p.A, priority 1999, dated 2004)
Converted amounts (≈) assume the structure as drawn.

Legend:
[1] = system: field Staphylococcus aureus (strain B); assay: Inhibition halos, diffusion method, strain B; format: cell-based
From the text: (§1) The inhibition halos were obtained through the diffusion method (Farmacopea Ufftclale Italiana, IX ed., page 315), using a culture medium “Mueller-Hinton Medium Difco, with a low thymine and thymidine content, in sterile Petri plates (9 cm in diameter), with Tryptic Soy Broth (Difco).
(§2) For the sensitivity test, both paper filtering disks, imbibed of a fixed quantity of antibiotic and the relevant adduct disks, having the same total dose, but a lower molar ratio of the active principle were prepared.
(§3) To produce a bacterial growth, a strain of Staphylococcus aureus ATCC 6538 P (strain A) and two strains of field Staphylococcus aureus (strains B and C) were used.
(§4) The culture broths were prepared placing a loop of bacterial coating of an agar culture (12 h) in a test tube containing sterile Tryptic Soy Broth (5 ml), successively incubated at 37° C. for 4 hours.
(§5) When necessary, the suspensions have been diluted with sterile water in order to obtain a turbidity similar to the reference standard (0.5 McFarland). The Mueller-Hinton culture medium (150 ml) was sterilized at 121° C. for 15 minutes; a part of it was positioned on sterile Petri plates (9 cm in diameter), was let to solidify, while another part was cooled at approx. 45° C., was inoculated with the bacterial suspensions as above prepared (15 ml) and poured onto the solidified agar surface (10 ml per plate).
(§6) The sown plates were let dry (open) under a laminar flow hood for 15 minutes, then the disks were placed on their surface (four each plate), i.e. the adduct and antibiotic according to the two desired concentrations. The prepared plates (five each tests) were overturned and incubated at 37° C. for 16 hours. After this interval, the inhibition halos were produced. The results are shown in Table 1, where F.U. indicates the dosage recommended by Farmacopea Ufficiale Italiana, IX ed., vol. 1

[2] = system: Staphylococcus aureus; assay: In vivo activity in mice infected with Staphylococcus aureus (ulcerative dermatitis), bacteriologic test; design: species or system albino mice; details: for Bacteriologic test after 5 days of therapy, negative / Bacteriologic test after 5 days of therapy, positive: number of subjects; for % of recovery: subjects with post-infective clinical symptoms, after 5 days of therapy
Protocol: The antibiotics and the respective adducts were used in solution with distilled water for injectables or with purified water for oral use. Common albino mice (average weight: 28 g), previously infected with Staphylococcus aureus (which is not resistant to the examined antibiotics), that had developed ulcerative dermatitis, with localized abscesses and popodermatitis […] were treated with the prepared solutions every 24 hours for 5 days. After this treatment, a bacteriologic checking through isolation was performed, using pads on the animal skin and inoculating the sample drawn from the […] on the plate.

[3] = system: field Staphylococcus aureus (strain B); assay: Minimum inhibiting concentration (MIC) in vitro, dilutions in liquid medium, strain B; format: cell-based; details: Mueller-Hinton broth pH=7.4, 37° C. 18-24 hours; for MIC: Staphylococcus aureus
Protocol: (§7) To produce a bacterial growth, a strain of Staphylococcus aureus ATCC 6538 P (strain A) and two strains of field Staphylococcus aureus (strains B and C) were used. […] A drop of broth (dilution 1:10) was added to all test tubes, which were incubated at 37° C. for 18-24 hours. Then, the test tube with the highest dilution free of any turbidity was considered as the one containing the minimum inhibiting concentration (MIC).

[4] = system: field Staphylococcus aureus (strain C); assay: Inhibition halos, diffusion method, strain C; format: cell-based
From the text: as §1, §2, §3, §4, §5, §6

[5] = system: Staphylococcus aureus ATCC 6538 P (strain A); assay: Minimum inhibiting concentration (MIC) in vitro, dilutions in liquid medium, strain A; format: cell-based; details: Mueller-Hinton broth pH=7.4, 37° C. 18-24 hours; for MIC: Staphylococcus aureus, ATCC6538
Protocol: as §7

[6] = system: field Staphylococcus aureus (strain C); assay: Minimum inhibiting concentration (MIC) in vitro, dilutions in liquid medium, strain C; format: cell-based; details: Mueller-Hinton broth pH=7.4, 37° C. 18-24 hours; for MIC: Staphylococcus aureus
Protocol: as §7

[7] = system: Staphylococcus aureus ATCC 6538 P (strain A); assay: Inhibition halos, diffusion method, strain A; format: cell-based
From the text: as §1, §2, §3, §4, §5, §6

[8] = system: S. aureus Smith BT13; assay: Murine model of Staphylococcus aureus subcutaneous abscess; format: in vivo, swiss mice; details: for Size scored: abscess size scored 0 to 3 per mouse, group sum; for Total abscesses in 30 mice / Total score (size scored) in 30 mice: cephalosporin, sum of 25, 50, 100 mg/kg groups; for Cured infected mice of 30: parent cephalosporin, 25, 50, 100 mg/kg groups together
Protocol: 200 Male swiss mice were housed in temperature and humidity controlled animal rooms. The body weight on the day of infection was 25 g (SD 1.2, no 10). Culture media Brain Heart Infusion Broth (Difco) (BHI) and Brain Heart Infusion Agar (Merck) (BHIA) were prepared according to the manufacturer instructions and autoclaved for 15 mins at 121° C. S. aureus Smith BT13 was used at infecting organism. It was stored frozen at −80° C. […] For each test article, a stock solution was prepared by dissolving the drug with 5 ml of water for injectables (5 mg/ml drug concentration for cephalosporins and 3 mg/ml for the adducts). Dilutions 1:2 and 1:4 were prepared using the same vehicles. All solutions were prepared immediately before use. […] At 6 h after inoculation, groups of 10 mice were dosed intraperitoneally with 0.5 ml either of one of the antibiotic solutions, while an untreated control group of 10 mice was injected intraperitoneally with 0.5 ml sterile water. […] On the third day after infection, all mice were sacrificed and autopsied. Presence and size of abscesses were recorded. […] The activity of all compounds was compared by the non parametric Mann-Whitney U test. Statistical significance was for p<0.05.

[9] = Solubility in water; format: physicochemical; details: of water, pH=4.8
[10] = disk dose 4 μg (adduct: same total dose), 37° C. 16 hours
[11] = disk dose 8 μg (adduct: same total dose)
[12] = infected subjects without post-infective clinical symptoms (NO)
[13] = subjects with post-infective clinical symptoms (YES), treated every 24 hours for 5 days
[14] = disk dose 0.64 μg (F.U.) (adduct: same total dose)
[15] = disk dose 1.56 μg (F.U.) (adduct: same total dose)
[16] = disk dose 6 μg (adduct: same total dose)

CC1(C)S[C@@H]2[C@H](NC(=O)[C@H](N)c3ccc(O)cc3)C(=O)N2[C@H]1C(=O)O [Amoxycillin]
Halos on strain B [1, 10]: 13.0 mm | Halos on strain B [1, 11]: 14.0 mm | Bacteriologic test after 5 days of therapy, negative [2, 12]: 0 | Bacteriologic test after 5 days of therapy, positive [2, 12]: 0 | Bacteriologic test after 5 days of therapy, negative [2, 13]: 13 | Bacteriologic test after 5 days of therapy, positive [2, 13]: 0 | % of recovery [2]: 100% | MIC [3]: 0.2 µg/mL (≈ 0.547 µM) | Halos on strain C [4, 10]: 9.7 mm | Halos on strain C [4, 11]: 10.0 mm | MIC [5]: 0.1 µg/mL (≈ 0.274 µM) | MIC [6]: 0.08 µg/mL (≈ 0.219 µM) | Halos on strain A [7, 10]: 12.0 mm | Halos on strain A [7, 11]: 13.2 mm

Cc1nnc(SCC2=C(C(=O)O)N3C(=O)[C@@H](NC(=O)Cn4cnnn4)[C@H]3SC2)s1 [Cefazolin]
Size scored ([8]; cephalosporin 25 mg/kg/dose): 17 | Size scored ([8]; cephalosporin 50 mg/kg/dose): 4 | Size scored ([8]; cephalosporin 100 mg/kg/dose): 0 | Total abscesses in 30 mice [8]: 8 absc | Total score (size scored) in 30 mice [8]: 21 | Cured infected mice of 30 [8]: 22 | Halos on strain B [1, 14]: 8.5 mm | Halos on strain B [1, 15]: 10.1 mm | Bacteriologic test after 5 days of therapy, negative [2, 13]: 15 | Bacteriologic test after 5 days of therapy, positive [2, 13]: 0 | % of recovery [2]: 100% | MIC [3]: 0.64 µg/mL (≈ 1.41 µM) | Halos on strain C [4, 14]: 10.1 mm | Halos on strain C [4, 15]: 10.9 mm | MIC [5]: 0.5 µg/mL (≈ 1.1 µM) | MIC [6]: 0.54 µg/mL (≈ 1.19 µM) | Halos on strain A [7, 14]: 11.0 mm | Halos on strain A [7, 15]: 12.2 mm

CO/N=C(\C(=O)N[C@@H]1C(=O)N2C(C(=O)O)=C(COC(C)=O)CS[C@H]12)c1csc(N)n1 [Cefotaxime]
Size scored ([8]; cephalosporin 25 mg/kg/dose): 11 | Size scored ([8]; cephalosporin 50 mg/kg/dose): 3 | Size scored ([8]; cephalosporin 100 mg/kg/dose): 0 | Total abscesses in 30 mice [8]: 6 absc | Total score (size scored) in 30 mice [8]: 14 | Cured infected mice of 30 [8]: 24/30

CC1=C(C(=O)O)N2C(=O)[C@@H](NC(=O)[C@H](N)C3=CCC=CC3)[C@H]2SC1 [Cefradin]
Halos on strain B [1, 14]: 7.0 mm | Halos on strain B [1, 15]: 9.0 mm | Bacteriologic test after 5 days of therapy, negative [2, 13]: 15 | Bacteriologic test after 5 days of therapy, positive [2, 13]: 0 | % of recovery [2]: 100% | MIC [3]: 4.8 µg/mL (≈ 13.7 µM) | Halos on strain C [4, 14]: 9.7 mm | Halos on strain C [4, 15]: 10.0 mm | MIC [5]: 4 µg/mL (≈ 11.4 µM) | MIC [6]: 4.3 µg/mL (≈ 12.3 µM) | solubility [9]: 4000 µg/mL (≈ 11400 µM) | Halos on strain A [7, 14]: 10.0 mm | Halos on strain A [7, 15]: 12.1 mm

CO/N=C(\C(=O)N[C@@H]1C(=O)N2C(C(=O)O)=C(CSc3nc(=O)c(=O)[nH]n3C)CS[C@H]12)c1csc(N)n1 [Ceftriaxone]
Size scored ([8]; cephalosporin 25 mg/kg/dose): 17 | Size scored ([8]; cephalosporin 50 mg/kg/dose): 14 | Size scored ([8]; cephalosporin 100 mg/kg/dose): 10 | Total abscesses in 30 mice [8]: 19 absc | Total score (size scored) in 30 mice [8]: 41 | Cured infected mice of 30 [8]: 11/30

Gentamicin
Halos on strain B [1, 10]: 11.8 mm | Halos on strain B [1, 16]: 12.0 mm | Bacteriologic test after 5 days of therapy, negative [2, 12]: 0 | Bacteriologic test after 5 days of therapy, positive [2, 12]: 0 | Bacteriologic test after 5 days of therapy, negative [2, 13]: 13 | Bacteriologic test after 5 days of therapy, positive [2, 13]: 0 | % of recovery [2]: 100% | MIC on strain B [3]: 0.15 µg/mL | Halos on strain C [4, 10]: 12.8 mm | Halos on strain C [4, 16]: 13.9 mm | MIC on strain A [5]: 0.125 µg/mL | MIC on strain C [6]: 0.139 µg/mL | Halos on strain A [7, 10]: 12.1 mm | Halos on strain A [7, 16]: 13.1 mm
